Assay results reported in publication PMC6365106 (Clinical pharmacology and therapeutics, 2016).
One block for each molecule: values may come before it.

Columns and labels:
OATP1B1 [1] = target: T1, OATP1B1 (Homo sapiens, UniProt Q9Y6L6); assay: in vitro; type: cell-based; details: oatp1b1-transfected cells
T1 sequence (Q9Y6L6 1-691): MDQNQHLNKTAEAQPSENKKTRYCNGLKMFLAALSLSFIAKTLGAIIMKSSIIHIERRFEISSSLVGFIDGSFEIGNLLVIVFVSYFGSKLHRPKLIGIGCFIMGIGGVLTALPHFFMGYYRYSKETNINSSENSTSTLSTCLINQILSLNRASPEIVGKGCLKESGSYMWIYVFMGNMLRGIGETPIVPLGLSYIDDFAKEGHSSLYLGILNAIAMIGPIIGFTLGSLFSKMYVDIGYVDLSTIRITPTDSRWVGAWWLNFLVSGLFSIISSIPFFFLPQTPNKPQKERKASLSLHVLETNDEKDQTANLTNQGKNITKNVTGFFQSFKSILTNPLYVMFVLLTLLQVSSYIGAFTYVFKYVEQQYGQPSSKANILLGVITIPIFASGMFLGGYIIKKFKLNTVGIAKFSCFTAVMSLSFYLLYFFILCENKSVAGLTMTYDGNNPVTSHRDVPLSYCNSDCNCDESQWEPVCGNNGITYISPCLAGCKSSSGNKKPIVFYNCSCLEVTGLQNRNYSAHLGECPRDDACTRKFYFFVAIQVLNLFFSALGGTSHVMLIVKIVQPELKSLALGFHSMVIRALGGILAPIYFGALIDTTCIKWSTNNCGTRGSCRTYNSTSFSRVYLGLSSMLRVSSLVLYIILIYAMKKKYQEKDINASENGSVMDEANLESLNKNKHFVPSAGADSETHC

OATP1B1 [2] = target: T1, OATP1B1; assay: in vitro; details: hek293 cells
OAT3 [3] = target: T2, OAT3 (Homo sapiens, UniProt Q8TCC7); assay: 3H-TDA uptake in OAT3-expressing HEK293 cells, blocked by probenecid; type: cell-based; details: HEK293, read-out: % inhibition at 30 μM
T2 sequence (Q8TCC7 1-542): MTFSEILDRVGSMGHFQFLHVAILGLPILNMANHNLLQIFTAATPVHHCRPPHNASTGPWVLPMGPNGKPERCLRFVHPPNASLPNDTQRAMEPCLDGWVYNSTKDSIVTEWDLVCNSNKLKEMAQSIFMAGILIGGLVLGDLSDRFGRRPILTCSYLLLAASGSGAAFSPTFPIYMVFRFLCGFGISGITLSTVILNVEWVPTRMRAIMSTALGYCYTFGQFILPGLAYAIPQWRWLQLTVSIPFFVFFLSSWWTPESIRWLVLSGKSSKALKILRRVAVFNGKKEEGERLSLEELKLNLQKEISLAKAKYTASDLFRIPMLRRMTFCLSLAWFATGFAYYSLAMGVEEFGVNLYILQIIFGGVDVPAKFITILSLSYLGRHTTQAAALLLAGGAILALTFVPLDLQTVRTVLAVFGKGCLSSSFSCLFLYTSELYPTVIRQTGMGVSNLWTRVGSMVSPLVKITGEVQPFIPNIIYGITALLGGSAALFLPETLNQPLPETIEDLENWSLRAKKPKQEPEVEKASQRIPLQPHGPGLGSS

OAT1 [4] = target: T3, OAT1 (Homo sapiens, UniProt Q4U2R8); assay: 3H-TDA uptake in OAT1-expressing HEK293 cells, blocked by probenecid; type: cell-based; details: HEK293, read-out: % inhibition at 30 μM
T3 sequence (Q4U2R8 1-563): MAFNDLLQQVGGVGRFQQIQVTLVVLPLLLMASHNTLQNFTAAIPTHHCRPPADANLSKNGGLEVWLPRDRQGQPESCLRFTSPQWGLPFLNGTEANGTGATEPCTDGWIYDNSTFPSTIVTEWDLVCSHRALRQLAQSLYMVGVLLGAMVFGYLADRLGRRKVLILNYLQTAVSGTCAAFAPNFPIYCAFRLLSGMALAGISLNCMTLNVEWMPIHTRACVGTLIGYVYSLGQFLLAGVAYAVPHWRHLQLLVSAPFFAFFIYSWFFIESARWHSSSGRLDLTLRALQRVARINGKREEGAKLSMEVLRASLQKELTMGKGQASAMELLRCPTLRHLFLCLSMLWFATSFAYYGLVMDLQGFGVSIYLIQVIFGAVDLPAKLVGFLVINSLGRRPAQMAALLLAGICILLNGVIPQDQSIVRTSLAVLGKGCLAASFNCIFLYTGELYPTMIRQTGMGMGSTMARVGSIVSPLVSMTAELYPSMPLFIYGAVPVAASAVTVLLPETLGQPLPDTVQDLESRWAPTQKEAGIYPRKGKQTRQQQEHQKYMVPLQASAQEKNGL

OAT3 [5] = target: T2, OAT3; assay: 3H-HDA uptake in OAT3-expressing HEK293 cells, blocked by probenecid; type: cell-based; details: HEK293, read-out: % inhibition at 30 μM
OATP1B1 [6] = target: T1, OATP1B1; assay: in vitro; details: hek293 cells; remark: listed apart in the source
OAT1 [7] = target: T3, OAT1; assay: 3H-HDA uptake in OAT1-expressing HEK293 cells, blocked by probenecid; type: cell-based; details: HEK293, read-out: % inhibition at 30 μM

SMILES: C[C@H](CCC(=O)NCCS(=O)(=O)O)[C@H]1CC[C@H]2[C@@H]3CC[C@@H]4C[C@H](OS(=O)(=O)O)CC[C@]4(C)[C@H]3CC[C@]12C [TLS, Taurolithocholate 3-sulfate]
inhibition at 30 µM (OATP1B1 [1]): > 70%

IC50 (OATP1B1 [2]): 1600 to 4000 nM
inhibition at 30 µM (OAT3 [3]): > 70%
inhibition at 30 µM (OAT1 [4]): > 30%
SMILES: O=C(O)CCCCCCCCCCCCC(=O)O [TDA, tetradecanedioic acid]

SMILES: C[C@H](CCC(=O)NCC(=O)O)[C@H]1CC[C@H]2[C@@H]3CC[C@@H]4C[C@H](O)CC[C@]4(C)[C@H]3C[C@H](O)[C@]12C [Glycodeoxycholate]
inhibition at 30 µM (OATP1B1 [1]): > 70%

inhibition at 30 µM (OAT3 [5]): > 70%
IC50 (OATP1B1 [6]): 1600 to 4000 nM
inhibition at 30 µM (OAT1 [7]): > 30%
SMILES: O=C(O)CCCCCCCCCCCCCCC(=O)O [HDA, hexadecanedioic acid]
